We go through 2 compounds from US20250009737A1, “COMPOUNDS AND METHODS FOR THE TARGETED DEGRADATION OF ANDROGEN RECEPTOR” (Arvinas Operations, Inc., priority 2023, published 2025).

The subject of one series is CYP2B6 mRNA. Put plainly: CYP2B6 mRNA induction in cryopreserved human hepatocytes. Format: in vitro ADME. Particulars: positive control inducer; human hepatocytes. Here is the method: (§1) The induction potential of Compound A on CYP enzymes was assessed in cryopreserved human hepatocytes from three donors. Following treatment for with Compound A at concentrations of 0.03-30 μM for 48 hours, mRNA levels for CYP1A2, 2B6, 2C8, 2C9, 2C19, and 3A4 were determined by semiquantitative real-time polymerase chain reaction (PCR). Test article concentrations during 24-hour incubation were determined. The potential of Compound A to cause direct and time-dependent inhibition (TDI) of the activities of CYP1A2, 2B6, 2C8, 2C9, 2C19, 2D6, and 3A4 was evaluated in pooled human liver microsomes (HLM) at 0.2-15 μM. Probe substrate concentrations around Km were used for direction inhibition and initial TDI assays. For TDI assay, Compound A was pre-incubated with pooled HLM with and without NADPH for 30 minutes prior to incubation with a single concentration of probe substrate.

For another series, the system named is CYP1A2 mRNA. Put plainly: CYP1A2 mRNA induction in cryopreserved human hepatocytes. Format: in vitro ADME. The following applies: positive control inducer; human hepatocytes. As to the method:
as §1

Each structure is given as a SMILES string.

`CCC1(c2ccccc2)C(=O)NC(=O)NC1=O` [Phenobarbital, reference compound]: in the series with CYP2B6 mRNA, the “CYP2B6 mRNA Fold induction, PC” value is 14-25 Fold. For the compound `COc1ccc2[nH]c([S+]([O-])Cc3ncc(C)c(OC)c3C)nc2c1` (centres unmarked) [Omeprazole, reference compound], the “CYP1A2 mRNA Fold induction, PC” value with CYP1A2 mRNA is reported as 77-88 Fold.
